Five compounds from ChEMBL document CHEMBL4834496 (ACS Med Chem Lett, 2021) can be followed below.

SMILES strings stand for the structures. pIC50, pKi: −log10 of the molar value.

In assay [1] the target is T1, Botulinum neurotoxin type A (Clostridium botulinum, UniProt P0DPI0). The assay is described as follows: Inhibition of Clostridium botulinum BoNT/A using SNAP-25 (66-mer) as substrate by LC-MS analysis.
In assay [2] the target is T1, Botulinum neurotoxin type A. The assay is described as follows: Inhibition of Clostridium botulinum BoNT/A light chain.

T1 sequence (P0DPI0 2-448 limits assumed): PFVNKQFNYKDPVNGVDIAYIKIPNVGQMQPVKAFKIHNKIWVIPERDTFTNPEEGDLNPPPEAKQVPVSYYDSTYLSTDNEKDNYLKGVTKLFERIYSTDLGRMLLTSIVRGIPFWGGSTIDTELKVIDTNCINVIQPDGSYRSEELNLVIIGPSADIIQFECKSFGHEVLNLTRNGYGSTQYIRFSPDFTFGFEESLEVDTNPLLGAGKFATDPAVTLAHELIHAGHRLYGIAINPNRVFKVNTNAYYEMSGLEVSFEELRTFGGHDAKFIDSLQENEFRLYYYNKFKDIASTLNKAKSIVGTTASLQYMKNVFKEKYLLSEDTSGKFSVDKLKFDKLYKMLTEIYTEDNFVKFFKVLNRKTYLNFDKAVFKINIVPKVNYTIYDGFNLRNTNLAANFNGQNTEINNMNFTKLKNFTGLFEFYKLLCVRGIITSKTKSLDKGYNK

What is called pIC50 is the negative decadic logarithm of the IC50, by convention in mol/L. High values mean a small IC50, low ones a large IC50. On to `O=C(C[C@H](CCO)c1ccc(Cl)cc1)NO`, for which the pIC50 in assay [1] was 4.44.

In assay [1], `O=C(C[C@@H](CCO)c1ccc(Cl)cc1Cl)NO` had a pIC50 of 6.00. Same read-out and setting: the result for `O=C(C[C@H](CCO)c1ccc(Cl)cc1Cl)NO` reads 4.68; that for `O=C(C[C@@H](CCO)c1ccc(Cl)cc1)NO`, 5.10. The term pKi denotes the Ki on a negative log10 scale, so that one unit is a factor of ten. A low value points to a high Ki. For `N=C(N)NCCC[C@H](N)C(=O)NO`, in assay [2], the pKi was 4.22.
